Data as given in patent US6759238B1, “Multidrug resistance associated proteins and uses thereof” (priority 1999, dated 2004).
Where two headings read alike, the source gives them in different places.

Experiments:
[1] = tested on: CEM-r1 cells; test: Uptake and metabolism of [3H]bispom-PMEA; details: for Metabolite Levels, Cells / Metabolite Levels, Medium: CEM-r1, 1 μM [3H]bispom-PMEA, 15 minutes
Protocol: (§1) Therefore, the metabolism of [^3H]bispom-PMEA (15), a lipophilic prodrug of PMEA, was analyzed in the two cell lines in order to further examine the mechanism of resistance in the mutant cell line.

[2] = tested on: CEM-SS cells; test: Uptake and metabolism of [3H]bispom-PMEA; details: for Metabolite Levels, Cells / Metabolite Levels, Medium: CEM-SS, 1 μM [3H]bispom-PMEA, 15 minutes
Protocol: as §1

[3] = tested on: CEM-r1 cells; test: Efflux of PMEA from bispom-PMEA loaded cells; type: in vitro ADME, human; details: CEM-r1, 3 min incubation, efflux at 15 minutes
Protocol: (§2) To examine whether the resistant cells could be altered in their capacity to retain the phosphonate analog, the clearance of [^3H]PMEA and its metabolites from CEM-SS and CME-r1 cells was determined. […] Aliquots of cells and medium sampled at different intervals over a period of 2 hr were analyzed by HPLC, and the results are shown in FIG. 4. […] Some of this clearance was probably due to the anabolism of PMEA, because the PMEAp- and PMEApp-associated radioactivity continued to accumulate within the cells, but the majority of the radioactivity was excreted into the medium as PMEA. In contrast to the results with parental cells, loss of intracellular PMEA-associated radioactivity in the resistant CEM-r1 cells was extremely rapid and the majority of the radioactivity within the cells was excreted into the medium within 20-30 minutes of incubation (FIG. 4).
(§3) Both CEM-SS and CME-r1 cells were incubated for 3 minutes with increasing concentrations (range 0.07 mM to 8.80 mM) of the prodrug for the selecting agent, Bis(POM)PMEA. After incubation, the cells were pelleted and reconstituted in drug-free medium, and the amount of PMEA present in the medium and intracellularly was measured 15 minutes after resuspension. The amount of PMEA effluxing out into the medium at 15 minutes increased initially with increasing concentration (FIG. 7A).
CEM-r1 cells were incubated with 0.07-8.8 mM Bis(POM)PMEA for 3 minutes. The cells were pelleted and reconstituted in either drug-free medium or in medium containing 0.5 mM PMEA, and the amount of PMEA present in the medium and intracellularly was measured 15 minutes after resuspension.
(§4) Referring to Table 6 in greater detail, efflux kinetics were studied. Transport analysis of PMEA was conducted as previously described^48. […] The cells were then washed free of radioactivity and then incubated in drug-free medium in the presence of sodium azide and 2-deoxy-D-glucose. At various time periods, the amount of intracellular AZTMP was measured. As reported in Table 6, depletion of ATP led to an inhibition of AZTMP efflux (i.e. a significant accumulation of AZTMP in the CEM-r1 cells but not in the CEM-SS cells).
(§5) At the indicated times, extracts were prepared from the cells and the medium, and the prodrug and its various nucleoside/nucleotide metabolites were analyzed by HPLC as described previously (24).

[4] = tested on: CEM-SS cells; test: Cytotoxicity assay (growth inhibition, Coulter counter)
Protocol: […] Each result is the mean of one representative experiment performed in duplicate. The cultures with the purine nucleosides adenosine, 2′-deoxyadenosine, and arabinosyladenine contained 5 μM deoxycoformycin to inhibit adenosine deaminase activity.
(§6) All assays were performed in 24-well tissue culture plates (Costar, Cambridge, Ma.). […] At the end of the incubation, the cell concentrations, sizes, and volumes were counted in a Coulter counter (Coulter Electronics, Hialeah. Fla.).

[5] = tested on: CEM-r1 cells; test: as above; details: for Relative Resistance: CEM-r1 vs CEM-SS (Table 3); for Cross-resistance of CEM-r1 cells (in words): relative sensitivity of wild-type and CEM-r1 cells
Protocol: Selection for PMEA resistance was carried out by exposing CEM-SS cells in culture to increasing concentrations of PMEA, over several months.
The IC50 values were obtained after 2 days of culture. Each result is the mean of one representative experiment performed in duplicate. The cultures with the purine nucleosides adenosine, 2′-deoxyadenosine, and arabinosyladenine contained 5 μM deoxycoformycin to inhibit adenosine deaminase activity.
as §6

[6] = tested on: CEM-SS cells; test: Efflux of PMEA from bispom-PMEA loaded cells; type: in vitro ADME, human; details: CEM-SS, 3 min incubation, efflux at 15 minutes
Protocol: as §2, §3, §4, §5

[7] = tested on: CEM-r1 cells; test: Phosphorylation of AZT; type: in vitro ADME, human; details: CEM-r1, 10 μM AZT
Protocol: (§7) The appearance of the phosphorylated metabolites into the medium was also determined in both the cell lines. AZTDP and AZTTP were not detected in the medium of either CEM-SS or CEM-r1 cells. However, the amount of AZTMP accumulated in the media was approximately 3-fold higher in CEM-r1 cells than in CEM-SS cells.
(§8) The cartridges were conditioned with 10% MeOH Ammonium Phosphate Buffer (5 mM, pH 4.0). The sample was loaded onto the column. […] AZTDP and AZTTP were eluted with 10% MeOH Ammonium Phosphate Buffer (700 mm, pH 4.6).

[8] = tested on: CEM-SS cells; test: Phosphorylation of AZT; type: in vitro ADME, human; details: 10 μM AZT
Protocol: as §7, §8

[9] = tested on: CEM-r1 cells; test: Efflux of [3H]-AZT and its metabolites; type: in vitro ADME, human
Protocol: Cells were incubated for 60 minutes with [^3H]-AZT (10 μM) after which they were washed free of radioactivity, resuspended in drug-free medium and the intracellular and the extracellular concentration of [^3H]-AZT were measured. […] At least 80% of the AZTMP present intracellularly in CEM-r1 cells was excreted into the medium in 10 minutes (FIG. 6A).
as §4
The suspension was centrifuged at 3,300 rpm for 7 minutes. All but 1 ml of the supernatant medium containing the free drug was aspirated. […] The cell pellet was then washed with ice-cold medium and resuspended at the same concentration in drug-free medium and maintained at 37° C. […] An aliquot of the top layer (cell free media) was analyzed for the quantitation of AZT and its metabolites.

[10] = CEM-SS, 2 days of culture (Table 3)
[11] = CEM-r1, 2 days of culture (Table 3)

**Q.** Which results are given for `CC(C)(C)C(=O)OCOP(=O)(COCCn1cnc2c(N)ncnc21)OCOC(=O)C(C)(C)C` [Bispom-PMEA, bis(pivaloyloxymethyl)-9-(2-phosphonylmethoxyethyl)adenine]?
**A.** Initial uptake, difference between the two cell lines ([1]; 1 μM [3H]bispom-PMEA, early time course (120 sec), CEM-SS vs CEM-r1): no significant difference; Metabolite Levels, Cells [1]: 0.04 µM; Metabolite Levels, Medium [1]: 429 nM; Metabolite Levels, Cells [2]: 0.03 µM; Metabolite Levels, Medium [2]: 490 nM; Radioactivity present in the cells detected as the intact pro-drug ([2]; after incubation with [3H]bispom-PMEA, similar in parental and resistant cells): ~2%; Prodrug concentration above which the amount of PMEA effluxed did not increase significantly [3]: > 4.4 mM; IC50 [4, 10]: 260 nM; IC50 [5, 11]: 32 µM; Relative Resistance [5]: 123; Cross-resistance of CEM-r1 cells (in words) [5]: highly cross-resistant; Prodrug concentration above which the amount of PMEA effluxed did not increase significantly [6]: higher than 2.2 mM

**Q.** For `CC[C@]1(O)C[C@@H]2CN(CCc3c([nH]c4ccccc34)[C@@](C(=O)OC)(c3cc4c(cc3OC)N(C)[C@H]3[C@@](O)(C(=O)OC)[C@H](OC(C)=O)[C@]5(CC)C=CCN6CC[C@]43[C@@H]65)C2)C1` [Vinblastine], which IC50 ([4]; Homo sapiens, CEM-SS, 48 h) is on record?
**A.** The IC50 was 1.8 nM.

**Q.** And the “Relative Resistance” value [5]?
**A.** The value was “˜1”.

**Q.** And the IC50 ([5]; Homo sapiens, 48 h)?
**A.** Its IC50 is 0.0021 µM.

**Q.** What about the “Cross-resistance of CEM-r1 cells (in words)” value (shortened to “Cross-resistance”) [5] of the same compound?
**A.** Its value is “not resistant”.

**Q.** With `Nc1nc(F)nc2c1ncn2[C@@H]1O[C@H](CO)[C@@H](O)[C@@H]1O` [2-Fluoroarabinosyladenine] as the compound, how does the IC50 [4, 10] read?
**A.** Its IC50 is 1200 nM.

**Q.** And the IC50 [5, 11]?
**A.** The IC50 was 4.4 µM.

**Q.** What about the “Relative Resistance” value [5] of the same compound?
**A.** The value was 3.7.

**Q.** What about the “Cross-resistance” value [5] of the same compound?
**A.** The value was “partially resistant”.

**Q.** For `Cc1cn([C@H]2C[C@H](N=[N+]=[N-])[C@@H](CO[P@](=O)(O)O[P@](=O)(O)OP(=O)(O)O)O2)c(=O)[nH]c1=O` [AZTTP], which “Appearance in the medium” value [7] is on record?
**A.** Its value is “not detected”.

**Q.** And the “Intracellular Concentration” value ([7]; 4 hours)?
**A.** The value was 0.36 µM.

**Q.** What about the “Intracellular Concentration” value ([7]; 8 hours) of the same compound?
**A.** The value was 0.34 µM.

**Q.** What about the “Intracellular Concentration” value ([7]; 24 hours) of the same compound?
**A.** The value was 0.43 µM.

**Q.** And the “Appearance in the medium” value [8]?
**A.** Its value is “not detected”.

**Q.** What about the “Intracellular Concentration” value ([8]; 4 hours) of the same compound?
**A.** The value was 1.3 µM.

**Q.** And the “Intracellular Concentration” value ([8]; 8 hours)?
**A.** Its value is 1.5 µM.

**Q.** And the “Intracellular Concentration” value ([8]; 24 hours)?
**A.** Its value is 1.3 µM.

**Q.** And the “Change of intracellular levels over the time period studied” value [9]?
**A.** The value was “did not change significantly”.

**Q.** What about the “Share of total cellular anabolites” value ([9]; human, 10 μM) of the same compound?
**A.** Its value is 1%.

**Q.** Which results are given for `CC(C)(C)C(=O)OCOP(=O)([O-])COCCn1cnc2c(N)ncnc21.[Na+]` [Monopom-PMEA]?
**A.** Metabolite Levels, Cells [1]: 4.1 µM; Metabolite Levels, Medium [1]: 166 nM; Metabolite Levels, Cells [2]: 4.6 µM; Metabolite Levels, Medium [2]: 185 nM

**Q.** For `COc1cc2c(c(OC)c1OC)-c1ccc(OC)c(=O)cc1[C@@H](NC(C)=O)CC2` [Colchicine], which “Cross-resistance” value [5] is on record?
**A.** The value was “not resistant”.

**Q.** How did the IC50 ([4]; Homo sapiens, CEM-SS, 48 h) turn out when `Nc1nc(Cl)nc2c1ncn2[C@H]1C[C@H](O)[C@@H](CO)O1` [2-Chlorodeoxyadenosine] was run?
**A.** Its IC50 is 80 nM.

**Q.** And the “Relative Resistance” value [5]?
**A.** The value was 5.5.

**Q.** And the IC50 ([5]; Homo sapiens, 48 h)?
**A.** The IC50 was 0.4 µM.

**Q.** And the “Cross-resistance” value [5]?
**A.** Its value is “partially resistant”.

**Q.** Which IC50 [4, 10] does the source give for `Nc1nc2c(ncn2CCOCP(=O)(O)O)c(=O)[nH]1` [PMEG, 9-(2-phosphonylmethoxyethyl)guanine] here?
**A.** Its IC50 is 700 nM.

**Q.** What about the IC50 ([4]; read-out: Cytotoxicity IC50, WT (CEM-SS) cells (Table 5)) of the same compound?
**A.** The IC50 was 5000 nM.

**Q.** What about the IC50 [5, 11] of the same compound?
**A.** Its IC50 is 19 µM.

**Q.** What about the IC50 ([5]; read-out: Cytotoxicity IC50, CEM-r1 cells (Table 5)) of the same compound?
**A.** The IC50 was 200 µM.

**Q.** And the “Cross-resistance” value [5]?
**A.** The value was “partial cross-resistance”.

**Q.** What does the source list for `Nc1ncnc2c1ncn2[C@@H]1O[C@H](CO)[C@@H](O)[C@@H]1O` [Arabinosyladenine]?
**A.** IC50 ([4]; Homo sapiens, CEM-SS, 48 h): 700 nM; Relative Resistance [5]: ˜1; IC50 ([5]; Homo sapiens, 48 h): 0.9 µM
